Data published in patent US8507533B2, “Glucagon receptor modulators” (Pfizer Inc., priority 2011, dated 2013).

Each molecule was assayed against human glucagon receptor (Homo sapiens (Human), UniProt P47871) (assay: Glucagon cAMP Assay (Cisbio cAMP detection)). Details: CHOK1 cells stably transfected with the human glucagon receptor; block of glucagon induced cAMP production; Kb by modified Cheng-Prusoff equation.
Assay type: cell-based
Procedure: The Cisbio cAMP detection assay is used to determine the ability of punitive glucagon antagonist to block glucagon induced cAMP production. Potential glucagon antagonists are re-suspended and diluted in 100% DMSO. Prior to use in the Glucagon cAMP assay 100×DMSO compound stocks are diluted 20× with DMEM-F12 media (Invitrogen) containing either 0.1% or 4% BSA. […] 2 μls of 5% DMSO or known glucagon antagonist are added to each plate to define the assay window. CHOK1 cells stably transfected with the human glucagon receptor are removed from culture flasks with cell dissociation buffer. Cell pellets are re-suspended, at a concentration of 8.3e^5 cells/ml in DMEM-F12 with or without 4% BSA and 200 uM IBMX. 6 μls of cell suspensions are added to the assay plates. Plates are incubated for 20 min at room temperature prior to the addition of a 100 μM challenge dose of glucagon. On a separate plate glucagon dose response curves are run to determine the EC50 of glucagon. After a 30 min room temperature incubation the reaction is terminated by the addition of lysis buffer containing the cAMP detection reagents. Plates are incubated for an additional 60 min at room temperature prior to being read on the Perkin Elmer fluorescent plate reader. Raw is converted to nM of cAMP produced based on a cAMP standard curve. Converted data is then analyzed using the Pfizer data analysis program. IC50 values are determined from the generated sigmoidal dose response curves. Kb values are calculated using a modified Cheng-Prusoff equation. N is the number of times the compound was assayed.

Chain of human glucagon receptor (P47871 26-477): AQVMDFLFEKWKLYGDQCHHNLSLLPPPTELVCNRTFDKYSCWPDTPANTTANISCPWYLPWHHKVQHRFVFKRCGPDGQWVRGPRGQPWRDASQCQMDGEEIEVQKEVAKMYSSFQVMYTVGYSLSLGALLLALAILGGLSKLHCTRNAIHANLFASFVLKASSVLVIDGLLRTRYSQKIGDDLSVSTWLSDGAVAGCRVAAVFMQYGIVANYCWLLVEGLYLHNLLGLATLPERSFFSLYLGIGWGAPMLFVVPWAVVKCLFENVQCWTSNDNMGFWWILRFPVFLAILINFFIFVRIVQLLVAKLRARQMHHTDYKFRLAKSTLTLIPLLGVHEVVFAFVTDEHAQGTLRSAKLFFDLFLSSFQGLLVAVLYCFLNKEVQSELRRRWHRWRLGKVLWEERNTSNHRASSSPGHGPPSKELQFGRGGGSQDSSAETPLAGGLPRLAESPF

| Kb [nM] | SMILES |
| --- | --- |
| 800 | CCCC(Oc1ccc(-n2cc(SC)cn2)cc1)c1ccc(C(=O)NCCC(=O)O)cc1 (racemic) [Example 20, (+/−)-3-(4-(1-(4-(4-(methylthio)-1H-pyrazol-1-yl)phenoxy)butyl)benzamido)propanoic acid] |
| 824 | CCCC(Oc1ccc(-n2ccc(C(C)(C)C)n2)cc1)c1ccc(C(=O)NCCC(=O)O)cc1 (racemic) [Example 21, (+/−)-3-(4-(1-(4-(3-tert-butyl-1-1H-pyrazol-1-yl)phenoxy)butyl)benzamido)propanoic acid] |
| 1030 | CCCC(Oc1ccc(-n2cc(CC)c(C)n2)cc1)c1ccc(C(=O)NCCC(=O)O)cc1 (racemic) [Example 24, (+/−)-3-(4-(1-(4-(4-ethyl-3-methyl-1H-pyrazol-1-yl)phenoxy)butyl)benzamido)propanoic acid] |
| 1080 | CCCC(Oc1ccc(-n2ccc(C(C)C)n2)cc1)c1ccc(C(=O)NCCC(=O)O)cc1 (racemic) [Example 27, (+/−)-3-(4-(1-(4-(3-isopropyl-1H-pyrazol-1-yl)phenoxy)butyl)benzamido)propanoic acid] |
| 1360 | CCCC(Oc1ccc(-n2ccc(C)n2)cc1)c1ccc(C(=O)NCCC(=O)O)cc1 (racemic) [Example 29, (+/−)-3-(4-(1-(4-(3-methyl-1H-pyrazol-1-yl)phenoxy)butyl)benzamido)propanoic acid] |
| 1410 | CCCC(Oc1ccc(-n2nccn2)cc1)c1ccc(C(=O)NCCC(=O)O)cc1 (racemic) [Example 30, (+/−)-3-(4-(1-(4-(2H-1,2,3-triazol-2-yl)phenoxy)butyl)benzamido)propanoic acid] |
| 1590 | CCCC(Oc1ccc(-n2nc(C)cc2OCC)cc1)c1ccc(C(=O)NCCC(=O)O)cc1 (racemic) [Example 32, (+/−)-3-(4-(1-(4-(5-ethoxy-3-methyl-1H-pyrazol-1-yl)phenoxy)butyl)benzamido)propanoic acid] |
| 1560 | CCCC(Oc1ccc(-n2nc(C)cc2OC)cc1)c1ccc(C(=O)NCCC(=O)O)cc1 (racemic) [Example 33, (+/−)-3-(4-(1-(4-(5-methoxy-3-methyl-1H-pyrazol-1-yl)phenoxy)butyl)benzamido)propanoic acid] |
| 2460 | CCCC(Oc1ccc(-n2cc(C)c(C)n2)cc1)c1ccc(C(=O)NCCC(=O)O)cc1 (racemic) [Example 39, (+/−)-3-(4-(1-(4-(3,4-dimethyl-1H-pyrazol-1-yl)phenoxy)butyl)benzamido)propanoic acid] |
| 2810 | CCCC(Oc1ccc(-n2ccc(CC)n2)cc1)c1ccc(C(=O)NCCC(=O)O)cc1 (racemic) [Example 42, (+/−)-3-(4-(1-(4-(3-ethyl-1H-pyrazol-1-yl)phenoxy)butyl)benzamido)propanoic acid] |
| 2910 | CCCC(Oc1ccc(-n2cnc(Cl)c2C)cc1)c1ccc(C(=O)NCCC(=O)O)cc1 (racemic) [Example 43, (+/−)-3-(4-(1-(4-(4-chloro-5-methyl-1H-imidazol-1-yl)phenoxy)butyl)benzamido)propanoic acid] |
| 3110 | CCCC(Oc1ccc(-n2cnc(CC)c2CC)cc1)c1ccc(C(=O)NCCC(=O)O)cc1 (racemic) [Example 44, (+/−)-3-(4-(1-(4-(4,5-diethyl-1H-imidazol-1-yl)phenoxy)butyl)benzamido)propanoic acid] |
| 3350 | CCCC(Oc1ccc(-n2nc(C)cc2C)cc1)c1ccc(C(=O)NCCC(=O)O)cc1 (racemic) [Example 45, (+/−)-3-(4-(1-(4-(3,5-dimethyl-1H-pyrazol-1-yl)phenoxy)butyl)benzamido)propanoic acid] |
| 6890 | CCCC(Oc1ccc(-n2cnc(C)n2)cc1)c1ccc(C(=O)NCCC(=O)O)cc1 (racemic) [Example 46, (+/−)-3-(4-(1-(4-(3-methyl-1H-1,2,4-triazol-1-yl)phenoxy)butyl)benzamido)propanoic acid] |
| 7810 | CCCC(Oc1ccc(-n2cncn2)cc1)c1ccc(C(=O)NCCC(=O)O)cc1 (racemic) [Example 47, (+/−)-3-(4-(1-(4-(1H-1,2,4-triazol-1-yl)phenoxy)butyl)benzamido)propanoic acid] |
| 10300 | CCCC(Oc1ccc(-n2cnc(C)c2C)cc1)c1ccc(C(=O)NCCC(=O)O)cc1 (racemic) [Example 49, (+/−)-3-(4-(1-(4-(4,5-dimethyl-1H-imidazol-1-yl)phenoxy)butyl)benzamido)propanoic acid] |

The next lines start with the molecule.

| SMILES | Kb [nM] |
| --- | --- |
| CCCC(Nc1ccc(-n2cnc(C(F)(F)F)c2)c(C)c1)c1ccc(C(=O)NCCC(=O)O)cc1 (racemic) [Example 1, (+/−)-3-(4-(1-(3-methyl-4-(4-(trifluoromethyl)-1H-imidazol-1-yl)phenylamino)butyl)benzamido)propanoic acid] | 1500 |
| CC(C)CC(Oc1ccc(C(=O)NCCC(=O)O)cc1)c1ccc(-n2cnc(C(F)(F)F)c2)cc1 (racemic) [Example 2, (+/−)-3-(4-(3-methyl-1-(4-(4-(trifluoromethyl)-1H-imidazol-1-yl)phenyl)butoxy)benzamido)propanoic acid] | 5280 |
| CCCC(Oc1ccc(-n2cc(C(F)(F)F)cn2)cc1)c1ccc(C(=O)NCCC(=O)O)cn1 (racemic) [Example 3, (+/−)-3-(6-(1-(4-(4-(trifluoromethyl)-1H-pyrazol-1-yl)phenoxy)butyl)nicotinamido)propanoic acid] | 1820 |
| CC(C)CC(Cc1ccc(-n2cc(C(F)(F)F)cn2)cc1)c1ccc(C(=O)NCCC(=O)O)cc1 (racemic) [Example 4, (+/−)-3-(4-(4-methyl-1-(4-(4-(trifluoromethyl)-1H-pyrazol-1-yl)phenyl)pentan-2-yl)benzamido)propanoic acid] | 1270 |
| O=C(O)CCNC(=O)c1ccc(C(Nc2ccc(-n3cnc(C(F)(F)F)c3)nc2)C2CCCC2)cc1 (racemic) [Example 8, (+/−)-3-(4-(cyclopentyl(6-(4-(trifluoromethyl)-1H-imidazol-1-yl)pyridine-3-ylamino)methyl)benzamido)propanoic acid] | 155 |
| CCCC(Nc1ccc(-n2cnc(C(F)(F)F)c2)nc1)c1ccc(C(=O)NCCC(=O)O)cc1 (racemic) [Example 9, (+/−)-3-(4-(1-(6-(4-(trifluoromethyl)-1H-imidazol-1-yl)pyridine-3-ylamino)butyl)benzamido)propanoic acid] | 572 |
| CCCC(Oc1ccc(-n2nc(CC)cc2CC)cc1)c1ccc(C(=O)NCCC(=O)O)cc1 (racemic) [Example 25, (+/−)-3-(4-(1-(4-(3,5-diethyl-1H-pyrazol-1-yl)phenoxy)butyl)benzamido)propanoic acid] | 1120 |
| CCCCc1cn(-c2ccc(OC(CCC)c3ccc(C(=O)NCCC(=O)O)cc3)cc2)cn1 (racemic) [Example 34, (+/−)-3-(4-(1-(4-(4-butyl-1H-imidazol-1-yl)phenoxy)butyl)benzamido)propanoic acid] | 1710 |
| CCCC(Oc1ccc(-n2c(C)c(C)c(C)c2C#N)cc1)c1ccc(C(=O)NCCC(=O)O)cc1 (racemic) [Example 35, (+/−)-3-(4-(1-(4-(2-cyano-3,4,5-trimethyl-1H-pyrrol-1-yl)phenoxy)butyl)benzamido)propanoic acid] | 1790 |
| CCCC(Oc1ccc(-n2cc(C)c(C#N)c2C)cc1)c1ccc(C(=O)NCCC(=O)O)cc1 (racemic) [Example 36, (+/−)-3-(4-(1-(4-(3-cyano-2,4-dimethyl-1H-pyrrol-1-yl)phenoxy)butyl)benzamido)propanoic acid] | 1820 |
| CCCC(Oc1ccc(-n2ccc(C)c2C#N)cc1)c1ccc(C(=O)NCCC(=O)O)cc1 (racemic) [Example 37, (+/−)-3-(4-(1-(4-(2-cyano-3-methyl-1H-pyrrol-1-yl)phenoxy)butyl)benzamido)propanoic acid] | 1760 |
| CCCc1ccn(-c2ccc(OC(CCC)c3ccc(C(=O)NCCC(=O)O)cn3)cc2)n1 (racemic) [Example 38, (+/−)-3-(6-(1-(4-(3-propyl-1H-pyrazol-1-yl)phenoxy)butyl)nicotinamido)propanoic acid] | 2130 |
| CCCC(Oc1ccc(-n2ccn3nccc23)cc1)c1ccc(C(=O)NCCC(=O)O)cc1 (racemic) [Example 41, (+/−)-3-(4-(1-(4-(1H-imidazo[1,2-b]pyrazol-1-yl)phenoxy)butyl)benzamido)propanoic acid] | 2840 |
| CCCCc1nccn1-c1ccc(OC(CCC)c2ccc(C(=O)NCCC(=O)O)cc2)cc1 (racemic) [Example 48, (+/−)-3-(4-(1-(4-(2-butyl-1H-imidazol-1-yl)phenoxy)butyl)benzamido)propanoic acid] | 8150 |
| CCCC(Oc1ccc(-c2cnn(CCC)c2)cc1)c1ccc(C(=O)NCCC(=O)O)cc1 (racemic) [Example 50, (+/−)-3-(4-(1-(4-(1-propyl-1H-pyrazol-4-yl)phenoxy)butyl)benzamido)propanoic acid] | 1560 |
| CCCC(Oc1ccc(-c2cc[nH]n2)cc1)c1ccc(C(=O)NCCC(=O)O)cc1 (racemic) [Example 51, (+/−)-3-(4-(1-(4-(1H-pyrazol-3-yl)phenoxy)butyl)benzamido)propanoic acid] | 1810 |
| CCCC(Oc1ccc(-c2c(C)noc2C)cc1)c1ccc(C(=O)NCCC(=O)O)cc1 (racemic) [Example 52, (+/−)-3-(4-(1-(4-(3,5-dimethylisoxazol-4-yl)phenoxy)butyl)benzamido)propanoic acid] | 2410 |
